Measured values: ChEMBL document CHEMBL1795262, “Pyrazole-based sulfonamide and sulfamides as potent inhibitors of mammalian 15-lipoxygenase” (Bioorg Med Chem Lett, 2011)
≈ marks a conversion by molar mass, not a printed value.

Legend:
[1] = target: T1, Polyunsaturated fatty acid lipoxygenase ALOX15 (Oryctolagus cuniculus, UniProt P12530); assay: Inhibition of rabbit 15-LO using linoleic acid by standard colorimetric assay
T1 sequence (P12530 whole entry): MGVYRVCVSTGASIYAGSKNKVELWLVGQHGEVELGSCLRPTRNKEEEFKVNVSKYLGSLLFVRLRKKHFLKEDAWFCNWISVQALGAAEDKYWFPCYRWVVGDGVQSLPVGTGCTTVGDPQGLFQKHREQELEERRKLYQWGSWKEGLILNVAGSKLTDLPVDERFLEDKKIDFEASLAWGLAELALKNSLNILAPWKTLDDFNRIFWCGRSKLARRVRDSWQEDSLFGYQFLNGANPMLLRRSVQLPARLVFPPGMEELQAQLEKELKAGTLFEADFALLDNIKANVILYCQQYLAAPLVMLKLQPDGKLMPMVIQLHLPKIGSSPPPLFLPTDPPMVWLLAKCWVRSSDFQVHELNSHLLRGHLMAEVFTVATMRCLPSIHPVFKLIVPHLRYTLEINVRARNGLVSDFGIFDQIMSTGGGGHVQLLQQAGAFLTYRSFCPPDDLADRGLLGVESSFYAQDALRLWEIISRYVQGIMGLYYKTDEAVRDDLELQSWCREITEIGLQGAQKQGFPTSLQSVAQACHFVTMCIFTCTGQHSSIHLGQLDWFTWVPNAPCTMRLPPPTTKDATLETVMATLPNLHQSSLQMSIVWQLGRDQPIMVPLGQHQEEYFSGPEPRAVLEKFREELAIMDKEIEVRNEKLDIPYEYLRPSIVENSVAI

[2] = target: T1, Polyunsaturated fatty acid lipoxygenase ALOX15; assay: Inhibition of rabbit 15-LO using arachidonic acid by standard colorimetric assay
[3] = target: T2, Polyunsaturated fatty acid lipoxygenase ALOX15 (Homo sapiens) (UniProt P16050); assay: Inhibition of human 15-LO expressed in CHO cells at 1 uM by cell-based assay
T2 sequence (whole entry): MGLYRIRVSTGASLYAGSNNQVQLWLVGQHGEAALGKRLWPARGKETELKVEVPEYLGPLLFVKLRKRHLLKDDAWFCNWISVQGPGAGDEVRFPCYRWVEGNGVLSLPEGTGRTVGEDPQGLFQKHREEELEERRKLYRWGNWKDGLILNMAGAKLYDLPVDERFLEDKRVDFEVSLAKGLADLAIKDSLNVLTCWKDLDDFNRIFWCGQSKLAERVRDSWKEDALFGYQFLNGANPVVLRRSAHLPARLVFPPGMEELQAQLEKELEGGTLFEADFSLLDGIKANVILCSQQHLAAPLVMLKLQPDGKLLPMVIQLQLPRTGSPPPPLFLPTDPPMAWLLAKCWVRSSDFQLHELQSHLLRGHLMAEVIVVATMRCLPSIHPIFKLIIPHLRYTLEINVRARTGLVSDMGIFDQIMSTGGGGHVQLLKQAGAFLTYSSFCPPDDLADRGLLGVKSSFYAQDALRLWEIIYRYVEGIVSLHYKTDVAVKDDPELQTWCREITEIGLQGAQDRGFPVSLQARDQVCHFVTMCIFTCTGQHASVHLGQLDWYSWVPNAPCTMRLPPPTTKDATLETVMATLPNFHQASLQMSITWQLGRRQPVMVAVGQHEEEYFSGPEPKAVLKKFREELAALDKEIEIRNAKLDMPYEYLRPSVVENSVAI

[4] = organism: Oryctolagus cuniculus; assay: Inhibition of 15-HETE production in New Zealand White rabbit whole blood at 10 uM by RP-HPLC; type: functional
[5] = organism: Oryctolagus cuniculus; assay: Inhibition of 15-HETE production in New Zealand White rabbit whole blood at 3 uM by RP-HPLC; type: functional
[6] = Aqueous solubility of the compound in water at pH 6.5
[7] = target: T3, Polyunsaturated fatty acid lipoxygenase ALOX12 (Homo sapiens) (UniProt P18054); assay: Inhibition of 12-LO at 10 uM
T3 sequence (whole entry): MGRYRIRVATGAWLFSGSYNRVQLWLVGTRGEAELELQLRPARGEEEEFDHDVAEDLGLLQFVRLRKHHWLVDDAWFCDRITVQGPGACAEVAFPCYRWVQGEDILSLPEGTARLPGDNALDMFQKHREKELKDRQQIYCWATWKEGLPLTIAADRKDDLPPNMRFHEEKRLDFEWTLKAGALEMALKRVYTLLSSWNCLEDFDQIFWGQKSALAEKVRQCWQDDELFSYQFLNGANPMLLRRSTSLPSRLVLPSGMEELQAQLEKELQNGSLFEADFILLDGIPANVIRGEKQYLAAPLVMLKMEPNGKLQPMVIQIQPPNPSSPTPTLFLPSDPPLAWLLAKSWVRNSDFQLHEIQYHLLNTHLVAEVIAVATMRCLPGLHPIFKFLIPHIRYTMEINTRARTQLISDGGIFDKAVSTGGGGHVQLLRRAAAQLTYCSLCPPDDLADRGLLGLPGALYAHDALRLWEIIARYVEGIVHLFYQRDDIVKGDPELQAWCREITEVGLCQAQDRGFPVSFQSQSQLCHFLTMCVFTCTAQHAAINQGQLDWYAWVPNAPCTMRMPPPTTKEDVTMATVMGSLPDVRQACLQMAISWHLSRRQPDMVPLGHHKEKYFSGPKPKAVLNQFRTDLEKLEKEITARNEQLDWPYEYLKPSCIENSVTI

[8] = target: T2, Polyunsaturated fatty acid lipoxygenase ALOX15 (Homo sapiens); assay: Inhibition of human 15-LO expressed in CHO cells at 3 uM by cell-based assay
[9] = organism: Oryctolagus cuniculus; assay: Inhibition of 15-HETE production in New Zealand White rabbit whole blood at 1 uM by RP-HPLC; type: functional
[10] = target: T4, Polyunsaturated fatty acid 5-lipoxygenase (Homo sapiens, UniProt P09917); assay: Inhibition of 5-LO
T4 sequence (P09917 whole entry): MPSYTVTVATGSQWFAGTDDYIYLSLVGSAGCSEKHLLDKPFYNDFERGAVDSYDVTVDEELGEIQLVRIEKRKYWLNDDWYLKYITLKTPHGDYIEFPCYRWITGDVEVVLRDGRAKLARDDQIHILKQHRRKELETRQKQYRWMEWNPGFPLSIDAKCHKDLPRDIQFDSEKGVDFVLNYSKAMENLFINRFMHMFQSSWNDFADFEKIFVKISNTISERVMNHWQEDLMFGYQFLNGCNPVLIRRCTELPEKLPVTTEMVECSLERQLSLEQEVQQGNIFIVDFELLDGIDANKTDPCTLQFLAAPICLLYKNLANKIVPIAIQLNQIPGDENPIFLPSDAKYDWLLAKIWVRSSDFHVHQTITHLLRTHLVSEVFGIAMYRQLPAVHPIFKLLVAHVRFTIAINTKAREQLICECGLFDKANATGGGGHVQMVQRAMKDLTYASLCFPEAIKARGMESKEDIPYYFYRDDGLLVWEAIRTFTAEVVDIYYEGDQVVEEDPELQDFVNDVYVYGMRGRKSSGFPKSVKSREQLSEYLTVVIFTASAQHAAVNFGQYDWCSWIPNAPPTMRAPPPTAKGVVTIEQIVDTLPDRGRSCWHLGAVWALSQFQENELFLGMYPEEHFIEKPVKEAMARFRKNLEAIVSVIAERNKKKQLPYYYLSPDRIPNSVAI

[11] = target: T5, Polyunsaturated fatty acid 5-lipoxygenase (Homo sapiens) (UniProt P09917); assay: Inhibition of 5-LO at 10 uM
T5 sequence (whole entry): T4 sequence (P09917 whole entry)

IC50 [1]	IC50 [2]	Structure (SMILES)	also measured
305 nM		CCCCCc1ccc(S(=O)(=O)NCCc2c(-c3ccc(OC)cc3)n[nH]c2CC(C)C)cc1	
1.5 nM	4.3 nM	COc1cccc(-c2[nH]nc(-c3cccs3)c2CCNS(=O)(=O)N(C)[C@@H]2CCN(Cc3ccccc3)C2)c1	inhibition [3]: 51%; inhibition at 10 µM [4]: 43%
3.6 nM	7.5 nM	CN([C@@H]1CCN(Cc2ccccc2)C1)S(=O)(=O)NCCc1c(-c2cccs2)n[nH]c1-c1ccccc1	inhibition at 10 µM [4]: 44%
2 nM	7 nM	CN([C@@H]1CCN(Cc2ccccc2)C1)S(=O)(=O)NCCc1c(-c2cccs2)n[nH]c1-c1cccs1	inhibition [3]: 79%; inhibition at 3 µM [5]: 40%
150 nM	1560 nM	CCCCCc1ccc(S(=O)(=O)NCCc2c(-c3ccccc3)n[nH]c2-c2ccc(OC)cc2)cc1	
4.2 nM	15 nM	Cc1cc(-c2[nH]nc(-c3cccs3)c2CCNS(=O)(=O)N(C)[C@@H]2CCN(Cc3ccccc3)C2)no1	inhibition at 10 µM [4]: 71%
4 nM	19 nM	CCCCCc1ccc(S(=O)(=O)NCCc2c(-c3cccs3)n[nH]c2-c2cccs2)cc1	inhibition at 10 µM [4]: 25%; solubility [6]: 0.2 µg/mL (≈ 0.412 µM); inhibition [7]: 35%
3980 nM		CCCCCc1ccc(S(=O)(=O)NCCc2c(-c3ccc(OC)cc3)n[nH]c2C)cc1	
68 nM	524 nM	CCCCCc1ccc(S(=O)(=O)NCCc2c(-c3ccccc3)n[nH]c2-c2cccc(OC)c2)cc1	
1.8 nM	2.4 nM	CCN([C@@H]1CCN([C@@H](C)c2ccccc2)C1)S(=O)(=O)NCCc1c(-c2cccs2)n[nH]c1-c1cnccn1	inhibition [8]: 94%; inhibition at 3 µM [5]: 69%; inhibition at 1 µM [9]: 39%; solubility [6]: 76 µg/mL (≈ 138 µM); IC50 [10]: 5500 nM; inhibition [7]: 32%
12 nM	65 nM	CCCCCc1ccc(S(=O)(=O)NCCc2c(-c3cccs3)n[nH]c2-c2cnccn2)cc1	
5.3 nM	8.2 nM	CCN([C@@H]1CCN([C@H](C)c2ccccc2)C1)S(=O)(=O)NCCc1c(-c2cccs2)n[nH]c1-c1cnccn1	inhibition [8]: 61%; inhibition at 10 µM [4]: 55%; solubility [6]: 71 µg/mL (≈ 129 µM); inhibition [11]: 68%; inhibition [7]: 38%
9 nM	53 nM	CCCCCc1ccc(S(=O)(=O)NCCc2c(-c3cccs3)n[nH]c2-c2cccc(OC)c2)cc1	
2.7 nM	4.1 nM	CCN([C@@H]1CCN(C(C)(C)c2ccccc2)C1)S(=O)(=O)NCCc1c(-c2cccs2)n[nH]c1-c1cnccn1	inhibition [8]: 83%; inhibition at 10 µM [4]: 63%; solubility [6]: 71 µg/mL (≈ 125 µM); inhibition [11]: 60%; inhibition [7]: 35%
10 nM	36 nM	CCCCCc1ccc(S(=O)(=O)NCCc2c(-c3cccs3)n[nH]c2-c2cc(C)on2)cc1	
158 nM	918 nM	CCCCCc1ccc(S(=O)(=O)NCCc2c(-c3ccccc3)n[nH]c2Cc2ccccc2)cc1	
11 nM	28 nM	CCCCCc1ccc(S(=O)(=O)NCCc2c(-c3cccs3)n[nH]c2-c2ccccc2)cc1	
35 nM	313 nM	CCCCCc1ccc(S(=O)(=O)NCCc2c(-c3ccccc3)n[nH]c2-c2ccccc2)cc1	
3 nM	7 nM	CN([C@@H]1CCN(Cc2ccccc2)C1)S(=O)(=O)NCCc1c(-c2cccs2)n[nH]c1-c1cnccn1	inhibition [3]: 81%; inhibition at 3 µM [5]: 51%; solubility [6]: 79 µg/mL (≈ 151 µM)
		CCN([C@@H]1CCN(C(C)c2ccc(F)cc2)C1)S(=O)(=O)NCCc1c(-c2cccs2)n[nH]c1-c1cnccn1 (some centres undefined)	inhibition at 3 µM [5]: 73%; inhibition at 1 µM [9]: 45%; solubility [6]: 129 µg/mL (≈ 226 µM); inhibition [7]: 16%
1220 nM		CCCCCc1ccc(S(=O)(=O)NCCc2c(-c3ccccc3OC)n[nH]c2-c2ccccc2)cc1	
